Reference: patent US12306176B2, “Microfluidic bi-directional migration assay” (Ohio State Innovation Foundation, priority 2017, dated 2025)

How the values were obtained:
EGFR = assay: Western blot of EGFR phosphorylation (Tyr-1068); format: cell-based, human; settings: EGF 25 ng/mL, absence of iEFs, 12 hours
Description: For these experiments, 1×10^6 cells/well were plated in 6-well plates in growth media for 12 hours followed by migration media for another 12 hours. Fresh migration media was added to the top three wells in each plate (1, 2, 3) while EGF (25 ng/mL) and supplemental migration media were added to the bottom three wells (4, 5, 6). One of the cell-containing 6-well plates was then treated with iEFs for 12 hours. Immediately after treatment, the plates were placed on ice and each well was then washed three times with 1× tris-buffered saline (TBS, Corning Inc.) solution. TBS was aspirated out and 1 mL ice-cold radioimmunoprecipitation assay (RIPA) buffer, supplemented with a protease inhibitor and a phosphatase inhibitor, was added to each well. Cells were scraped out using a cold plastic cell scraper and the cell suspension was transferred into a pre-cooled microcentrifuge tube. The cell suspension was then spun at 16000 g for 20 minutes in a 4° C. precooled centrifuge. The centrifuge tubes were placed on ice and the supernatants were transferred to fresh tubes and kept on ice. The pellet at the bottom of each microcentrifuge tube was discarded. Protein in each tube was estimated against a standard bovine serum albumin (BSA) solution (1.42 mg/mL) using the DCTM Protein Assay Kit II (Bio-Rad, 500-0112). […]

MDA-MB-231 cells = assay: F-actin polarization ratio in the MBDM assay; format: cell-based, human; settings: EGF gradient, absence of iEFs (untreated 0.34)
Description: This section reports on the effects of iEFs on the distribution of F-actin in cells migrating along the microtracks of the MBDM assay. To quantify the distribution of F-Actin, a quantity referred to herein as the polarization ratio (PR) was introduced, which has values between 0 and 1.
Cells in the devices were fixed in 3.7 (wt/wt) paraformaldehyde solution for 30 minutes. They were subsequently washed with 1×PBS three times. For F-actin labeling, we blocked the cells for 60 minutes in blocking buffer (0.1% Triton-X and 5% donkey serum in 1×PBS). Cells were then treated with Alexa Fluoro® 488-conjugated or 555-conjugated phalloidin for 60 minutes (1:40, ThermoFisher), again followed by a 1×PBS wash (three times, 10 minutes each). […]
Actin immunofluorescence images were acquired using a Nikon TE200 epifluorescence microscope (Nikon Instruments Inc.) under a 20× objective. The immunofluorescence images were quantified using custom MATLAB scripts. The custom MATLAB script calculated the geometric center for an individual cell, i.e. the arithmetic mean of the locations of all pixels comprising the cell area. Then the distance from this geometric center and angle (0°≤θ≤360°) of every pixel relative to a horizontal axis (θ=0°) was calculated. […] A moment of intensity is calculated for individual pixels and this value is summed for all the pixels in every individual sector. […]

epidermal growth factor [EGF]
EGFR phosphorylation (EGFR): resulted in EGFR phosphorylation
center of the F-actin polarization ratio (PR) distribution (MDA-MB-231 cells): 0.62
